Converted amounts (≈) assume the structure as drawn. Values belong to the compound of their own block, whether it stands above or below them. The source made the active and inactive calls. The calls are words filed in the database; no cut-off is given here.
Legend:
Candida albicans [1] = experiment: Antifungal activity against Candida albicans CA23 in presence of fluconazole by microdilution method; type: functional
Candida albicans [2] = experiment: Antifungal activity against Candida albicans SC5314 assessed as fractional inhibitory concentration index in presence of fluconazole by microdilution method; type: functional
Candida albicans [3] = experiment: Antifungal activity against Candida albicans CA23 by microdilution method; type: functional
Candida albicans [4] = experiment: Antifungal activity against Candida albicans SC5314 in presence of fluconazole by microdilution method; type: functional
Candida albicans [5] = experiment: Antifungal activity against Candida albicans SC5314 by microdilution method; type: functional
Candida albicans [6] = experiment: Antifungal activity against Candida albicans CA23 assessed as fractional inhibitory concentration index in presence of fluconazole by microdilution method; type: functional
Candida albicans [7] = experiment: Antifungal activity against Candida albicans CA558 by microdilution method; type: functional
Candida albicans [8] = experiment: Antifungal activity against Candida albicans CA602 by microdilution method; type: functional
Candida albicans [9] = experiment: Antifungal activity against Candida albicans at 2 ug/mL in presence of 1 ug/mL fluconazole by Time-kill curve assay; type: functional, organism-based; conditions: dose 2.0 µg/ml
Candida albicans [10] = experiment: Induction of mitochondrial membrane potential loss in Candida albicans at 2 ug/ml after 16 hrs in presence of 1 ug/mL fluconazole by JC-1 staining based fluorescence microplate reader; type: functional, organism-based; conditions: dose 2.0 µg/ml
Candida albicans [11] = experiment: Antifungal activity against Candida albicans CA5408 assessed as fractional inhibitory concentration index in presence of fluconazole by microdilution method; type: functional
Candida albicans [12] = experiment: Antifungal activity against Candida albicans CA3511 by microdilution method; type: functional
Candida albicans [13] = experiment: Antifungal activity against Candida albicans CA187 assessed as fractional inhibitory concentration index in presence of fluconazole by microdilution method; type: functional
Candida albicans [14] = experiment: Antifungal activity against Candida albicans CA800 by microdilution method; type: functional
Candida albicans [15] = experiment: Antifungal activity against Candida albicans ATCC14053 assessed as shortened length of hyphae at 2 ug/mL in presence of 1 ug/mL fluconazole by microscopic analysis; type: functional, organism-based; conditions: dose 2.0 µg/ml
Candida albicans [16] = experiment: Antifungal activity against Candida albicans CA602 in presence of fluconazole by microdilution method; type: functional
Candida albicans [17] = experiment: Antifungal activity against Candida albicans CA3816 assessed as fractional inhibitory concentration index in presence of fluconazole by microdilution method; type: functional
Candida albicans [18] = experiment: Antifungal activity against Candida albicans CA3816 by microdilution method; type: functional
Candida albicans [19] = experiment: Antifungal activity against Candida albicans CA800 in presence of fluconazole by microdilution method; type: functional
Candida albicans [20] = experiment: Induction of mitochondrial membrane potential loss in Candida albicans at 2 ug/ml after 16 hrs by JC-1 staining based fluorescence microplate reader; type: functional, organism-based; conditions: dose 2.0 µg/ml
Candida albicans [21] = experiment: Induction of ROS production in Candida albicans at 2 ug/ml in presence of 1 ug/mL fluconazole by DCFH-DA assay; type: functional; conditions: dose 2.0 µg/ml
Candida albicans [22] = experiment: Antifungal activity against Candida albicans CA5408 in presence of fluconazole by microdilution method; type: functional
Candida albicans [23] = experiment: Antifungal activity against Candida albicans CA187 by microdilution method; type: functional
Candida albicans [24] = experiment: Antifungal activity against Candida albicans CA5408 by microdilution method; type: functional
Candida albicans [25] = experiment: Antifungal activity against Candida albicans ATCC14053 by microdilution method; type: functional
Candida albicans [26] = experiment: Antifungal activity against Candida albicans ATCC14053 assessed as decrease in number of hyphae at 2 ug/mL in presence of 1 ug/mL fluconazole by microscopic analysis; type: functional, organism-based; conditions: dose 2.0 µg/ml
Candida albicans [27] = experiment: Antifungal activity against Candida albicans CA602 assessed as fractional inhibitory concentration index in presence of fluconazole by microdilution method; type: functional
Candida albicans [28] = experiment: Antifungal activity against Candida albicans CA3511 in presence of fluconazole by microdilution method; type: functional
Candida albicans [29] = experiment: Antifungal activity against Candida albicans CA187 in presence of fluconazole by microdilution method; type: functional
Candida albicans [30] = experiment: Antifungal activity against Candida albicans CA3816 in presence of fluconazole by microdilution method; type: functional
Candida albicans [31] = experiment: Antifungal activity against Candida albicans ATCC14053 assessed as fractional inhibitory concentration index in presence of fluconazole by microdilution method; type: functional
[32] = Cytotoxicity against PBMC (unknown origin) by MTT assay; type: toxicity, cell-based
Candida albicans [33] = experiment: Antifungal activity against Candida albicans CA800 assessed as fractional inhibitory concentration index in presence of fluconazole by microdilution method; type: functional
Candida albicans [34] = experiment: Antifungal activity against Candida albicans ATCC14053 in presence of fluconazole by microdilution method; type: functional
Candida albicans [35] = experiment: Antifungal activity against Candida albicans CA3511 assessed as fractional inhibitory concentration index in presence of fluconazole by microdilution method; type: functional
Candida albicans [36] = experiment: Antifungal activity against Candida albicans CA558 assessed as fractional inhibitory concentration index in presence of fluconazole by microdilution method; type: functional
[37] = Cytotoxicity against human 16HBE by MTS assay; type: toxicity, cell-based; conditions: 16HBE14o- cells
Candida albicans [38] = experiment: Effect on cell membrane permeability ib Candida albicans assessed as cell membrane damage at 2 ug/ml measured after 8 to 24 hrs in presence of 1 ug/mL fluconazole by PI staining based fluorescence analysis; type: functional; conditions: dose 2.0 µg/ml, time 8-24 hrs
Candida albicans [39] = experiment: Antifungal activity against Candida albicans CA558 in presence of fluconazole by microdilution method; type: functional

Compound: Cc1ccc(O)c(C(c2c[nH]c3ccccc23)c2c[nH]c3ccccc23)c1
MIC80 (Candida albicans [1]): 5.83 µg/mL | fractional inhibitory concentration index (FICI) (Candida albicans [2]): 0.33 | MIC80 (Candida albicans [3]): > 200 µg/mL | MIC80 (Candida albicans [4]): 4.28 µg/mL | MIC80 (Candida albicans [5]): 23.2 µg/mL (≈ 65.9 µM) | fractional inhibitory concentration index (FICI) (Candida albicans [6]): 0.02

Compound: Oc1ccc(Br)cc1C(c1c[nH]c2ccccc12)c1c[nH]c2ccccc12
MIC80 (Candida albicans [1]): 5.81 µg/mL | fractional inhibitory concentration index (FICI) (Candida albicans [2]): 0.13 | MIC80 (Candida albicans [3]): > 200 µg/mL | MIC80 (Candida albicans [4]): 3.58 µg/mL | MIC80 (Candida albicans [5]): > 200 µg/mL | fractional inhibitory concentration index (FICI) (Candida albicans [6]): 0.02

Compound: Oc1cc(F)ccc1C(c1c[nH]c2ccccc12)c1c[nH]c2ccccc12
MIC80 (Candida albicans [1]): 7.4 µg/mL | fractional inhibitory concentration index (FICI) (Candida albicans [2]): 0.58 | MIC80 (Candida albicans [3]): > 200 µg/mL | MIC80 (Candida albicans [4]): 15.5 µg/mL | MIC80 (Candida albicans [5]): > 200 µg/mL | fractional inhibitory concentration index (FICI) (Candida albicans [6]): 0.02

Compound: Oc1ccc(F)cc1C(c1c[nH]c2ccccc12)c1c[nH]c2ccccc12
MIC80 (Candida albicans [1]): 5.92 µg/mL | fractional inhibitory concentration index (FICI) (Candida albicans [2]): 0.04 | MIC80 (Candida albicans [3]): > 200 µg/mL | MIC80 (Candida albicans [4]): 0.98 µg/mL | MIC80 (Candida albicans [5]): > 200 µg/mL | fractional inhibitory concentration index (FICI) (Candida albicans [6]): 0.02

Compound: CN(C)c1ccc(C(c2c[nH]c3ccccc23)c2c[nH]c3ccccc23)c(O)c1
MIC80 (Candida albicans [1]): 5.76 µg/mL | fractional inhibitory concentration index (FICI) (Candida albicans [2]): 2.57 | MIC80 (Candida albicans [3]): 24 µg/mL (≈ 62.8 µM) | MIC80 (Candida albicans [4]): 0.94 µg/mL | MIC80 (Candida albicans [5]): 0.37 µg/mL (≈ 0.97 µM) | fractional inhibitory concentration index (FICI) (Candida albicans [6]): 0.24

Compound: Oc1c(Cl)cc(Br)cc1C(c1c[nH]c2ccccc12)c1c[nH]c2ccccc12
MIC80 (Candida albicans [1]): 6.59 µg/mL | fractional inhibitory concentration index (FICI) (Candida albicans [2]): 0.04 | MIC80 (Candida albicans [3]): 18.3 µg/mL (≈ 40.6 µM) | MIC80 (Candida albicans [4]): 0.9 µg/mL | MIC80 (Candida albicans [5]): > 200 µg/mL | fractional inhibitory concentration index (FICI) (Candida albicans [6]): 0.36

Continued, in another order:

MIC80 (Candida albicans [1]): 5.82 µg/mL | MIC80 (Candida albicans [3]): > 200 µg/mL | MIC80 (Candida albicans [4]): 1.31 µg/mL | MIC80 (Candida albicans [5]): > 200 µg/mL
Compound: Oc1c(Cl)cccc1C(c1c[nH]c2ccccc12)c1c[nH]c2ccccc12
fractional inhibitory concentration index (FICI) (Candida albicans [2]): 0.05 | fractional inhibitory concentration index (FICI) (Candida albicans [6]): 0.02

MIC80 (Candida albicans [7]): > 200 µg/mL | MIC80 (Candida albicans [8]): > 200 µg/mL | MIC80 (Candida albicans [12]): > 200 µg/mL | MIC80 (Candida albicans [1]): 5.82 µg/mL | MIC80 (Candida albicans [3]): > 200 µg/mL | MIC80 (Candida albicans [14]): > 200 µg/mL | MIC80 (Candida albicans [16]): 5.69 µg/mL | MIC80 (Candida albicans [18]): > 200 µg/mL | MIC80 (Candida albicans [19]): 2.63 µg/mL | MIC80 (Candida albicans [4]): 1.22 µg/mL | MIC80 (Candida albicans [22]): 1.33 µg/mL | MIC80 (Candida albicans [23]): > 200 µg/mL | MIC80 (Candida albicans [24]): > 200 µg/mL | MIC80 (Candida albicans [5]): > 200 µg/mL | MIC80 (Candida albicans [25]): > 200 µg/mL | MIC80 (Candida albicans [28]): 5.96 µg/mL | MIC80 (Candida albicans [29]): 4.5 µg/mL | MIC80 (Candida albicans [30]): 1.38 µg/mL | MIC80 (Candida albicans [34]): 1.37 µg/mL | MIC80 (Candida albicans [39]): 5.61 µg/mL
Compound: Oc1c(Br)cccc1C(c1c[nH]c2ccccc12)c1c[nH]c2ccccc12
Activity (Candida albicans [9]): Active | Activity (Candida albicans [10]): Active | fractional inhibitory concentration index (FICI) (Candida albicans [11]): 0.01 | fractional inhibitory concentration index (FICI) (Candida albicans [2]): 0.04 | fractional inhibitory concentration index (FICI) (Candida albicans [13]): 0.02 | Activity (Candida albicans [15]): Active | fractional inhibitory concentration index (FICI) (Candida albicans [17]): 0.01 | Activity (Candida albicans [20]): Active | Activity (Candida albicans [21]): Active | fractional inhibitory concentration index (FICI) (Candida albicans [6]): 0.02 | Activity (Candida albicans [26]): Active | fractional inhibitory concentration index (FICI) (Candida albicans [27]): 0.03 | fractional inhibitory concentration index (FICI) (Candida albicans [31]): 0.01 | CC50 [32]: 32.7 µg/mL (≈ 78.5 µM) | fractional inhibitory concentration index (FICI) (Candida albicans [33]): 0.01 | fractional inhibitory concentration index (FICI) (Candida albicans [35]): 0.03 | fractional inhibitory concentration index (FICI) (Candida albicans [36]): 0.03 | CC50 [37]: 35.6 µg/mL (≈ 85.3 µM) | Activity (Candida albicans [38]): Active

MIC80 (Candida albicans [1]): 6.07 µg/mL | MIC80 (Candida albicans [3]): > 200 µg/mL | MIC80 (Candida albicans [4]): 3.22 µg/mL | MIC80 (Candida albicans [5]): > 200 µg/mL
Compound: Oc1ccccc1C(c1c[nH]c2ccccc12)c1c[nH]c2ccccc12
fractional inhibitory concentration index (FICI) (Candida albicans [2]): 0.12 | fractional inhibitory concentration index (FICI) (Candida albicans [6]): 0.03
